Assay results as given in patent publication US6902881B2, “Compounds and methods for regulating cell differentiation” (priority 2000, dated 2005).

Experiments:
[1] = test system: UV-irradiated Xenopus laevis stage 1 embryos; assay: Rescue of dorsal axis formation in UV-irradiated embryos, scored by dorsal anterior index (DAI); type: in vivo
Procedure: (§1) Several hundred spawned eggs were fertilized in vitro and incubated at 16 to 18° C. […] The vegetal surfaces of some of these embryos were irradiated with one or the other sources of UV light within 10 min of fertilization for 20-30 min. […] The embryos were not disturbed, touched or tipped from the moment of fertilization, during UV irradiation or for the duration of development. […] A score of 5 defines a normal dorsal axis, 4 a microcephalic, 3 a cyclopic, 2 an anoptic, 1 an acephalic and 0 an adorsal embryo.
The biological activities of biliverdin and its derivatives were tested by adding each of them to the incubation solution of embryos after the termination of the UV light exposure to either 254 or 366 nm UV light and at selected time periods between T ƒfm=0.4-2.5. Final concentrations of biliverdin ranged from 0.05 to 5 μM in less than 1% ethanol. […] An extinction coefficient of 51,000 was utilized to calculate their concentrations. All petri dishes were covered with aluminum foil to avoid light exposure. The extent of dorsal axis formation was analyzed by the morphological criteria described above.
(§2) Stage 1 embryos were exposed to UV-light source emitting at 366 nm (Mineralight UVSL-58, Ultraviolet Products, Inc., San Gabriel, Calif.) as described and then incubated in the presence of pure candidate DCD or commercially available biliverdin (Sigma-Aldrich, St. Louis, Mo.) at final concentrations from 0.05 to 1.2 μM in less than 1% ethanol. The concentrations were calculated using a molar extinction coefficient of 51,000. One group of embryos was not exposed to UV light but was incubated in the presence of 0.5 μM of candidate DCD.

[2] = test system: p 21 content in HT 29 Colon Cancer Cells; assay: p21 content in HT 29 colon cancer cells; type: cell-based, human; conditions: HT 29 low-density culture
Procedure: Biliverdin IXα exerts powerful effects on human colon cancer HT 29 cells. Normally, the contents of p21 and p27, known inhibitors of the CDK system, increase as control HT 29 cells become confluent and reach stationary phase. […] In contrast, addition of 4×10^−7 M biliverdin to the incubation medium of the low-density cultures, results in persistence and/or progressive increase in p21 and p27 content starting as early as 16 hs. This effect on p21 induction is dependent on one or both of the propionic acid side chains of biliverdin.

[3] = test system: control fertilized oocytes unexposed to UV light; assay: Development of control embryos unexposed to UV light incubated with the compounds (dysmorphogen test); conditions: control fertilized oocytes unexposed to UV light incubated with the compound
Procedure: as §1
The biological activities of biliverdin and its derivatives were tested by adding each of them to the incubation solution of embryos after the termination of the UV light exposure to either 254 or 366 nm UV light and at selected time periods between T ƒfm=0.4-2.5. Final concentrations of biliverdin ranged from 0.05 to 5 μM in less than 1% ethanol. […] The extent of dorsal axis formation was analyzed by the morphological criteria described above.
as §2, with “One group of embryos was not exposed to UV light but was incubated in the presence of 0.5 μM of candidate DCD.” left out

[4] = test system: HT29 colon cancer cells; assay: Cellular proliferation and viability of HT29 colon cancer cells; type: cell-based, human
Procedure: Cell Culture Conditions. Human HT 29 colon cancer cells were purchased from the American Type Culture Collection. Cells were maintained in Dulbecco's Modified Eagle's Medium (DME) supplemented with 5% heat-inactivated fetal bovine serum, 2 mM glutamine, and antibiotics (DME/5%). All cell lines were incubated in a humidified 5% CO2/air environment. They were maintained at 37° C. in 5% CO2 covered in aluminum foil to prevent exposure to the light. A total of 1×10^6 cells were incubated per flask and allowed to attach overnight. Media was changed every third day. Cell counts were performed on a Coulter Counter following detachment of cells by standard trypsinization procedures. […] The period of exposure was followed by incubation in the absence of biliverdine. Cell numbers were monitored until proliferation resumed. The production of CEA and alkaline phosphatase was measured as described below.
The HT29 colon cancer cells were incubated with different concentrations of biliverdine and their response studied to identify the concentration ranges required to elicit a biological and/or a toxicological response (Table III).

[5] = test system: Normal Fibroblast (3T3-L1 fibroblasts); assay: Cellular triacyl glycerol (TAG) content, normal fibroblast; type: cell-based
Procedure: Expression of differentiation markers. Carcinoembryogenic antigen in cell supernatants collected each three days was assayed by standard ELISA determinations using an IMX assay for quantitative measurement of the antigen. Cellular triacyl glycerol content was measured spectrophotometrically by enzymatic hydrolysis and analysis of the amount of glycerol released using a standard assay, Triglyceride (INT) 10 (Sigma Diagnostics). […] The fluorescence is detected at 450 nm with an excitation of 365 nm, using a Jobin Ivon-Spex Fluoro Max-2 fluorimeter. The alkaline phosphatase activity detected was expressed in units of μmol/mg protein/min. These compounds also affect the timing for the fat accumulation. After 9 days of incubation with insulin and bovine pituitary extract, but without biliverdin, the fat droplets in the cells are small and scattered diffusely throughout the cell. These globules continue to enlarge to fill most of the cytoplasmic space by day 14. In contrast, by day 7 the cells incubated in the presence of biliverdin already contain large, grouped and prominent droplets. While the triacyl glycerol content increases in both HT 29 and liposarcoma cells, the fat droplets in HT 29 cells are smaller than those that fill the cytoplasm of the liposarcoma cells. 3T3-L1 fibroblasts differentiate into adipocytes in the presence of insulin (Table VII). In the absence of biliverdin, this hormone increases the triacylglycerol content of 3T3-L1 fibroblasts by 3-fold relative to control. When biliverdin is added, a progressively greater content of triacyl glycerol is achieved at day 9. The increase is dependent on the biliverdin concentration. At the highest concentration used, 4×10^−7 M, there is a 5.8-fold increase of triacyl glycerol content over that of the undifferentiated fibroblasts (Table VII). This almost doubles the amount in the cells incubated with differentiation medium alone and is nearly as high as observed with troglitazone. At a lower biliverdin concentration, 10^−8 M, there is a 3.5-fold increase compared to control values. Remarkably, the amounts of biliverdin required to achieve the effects on proliferation, cell cycle and differentiation marker up-regulation, i.e. 10^−7-10^−06 M, are the same as those needed to re-establish the capacity of embryos depleted of the tetrapyrrole by treatment with UV-light to form a dorsal axis.

[6] = test system: Liposarcoma cells; assay: Cellular triacyl glycerol (TAG) content, liposarcoma; type: cell-based, human; conditions: insulin 5 μg/ml, pituitary extract 20 μg/ml, biliverdin 4 × 10^−7 M where present
Procedure: Expression of differentiation markers. Carcinoembryogenic antigen in cell supernatants collected each three days was assayed by standard ELISA determinations using an IMX assay for quantitative measurement of the antigen. Cellular triacyl glycerol content was measured spectrophotometrically by enzymatic hydrolysis and analysis of the amount of glycerol released using a standard assay, Triglyceride (INT) 10 (Sigma Diagnostics). Cellular alkaline phosphatase activity was determined by measuring the fluorescence change induced by the hydrolysis of 4-methylumbelliferylphosphate. The fluorescence is detected at 450 nm with an excitation of 365 nm, using a Jobin Ivon-Spex Fluoro Max-2 fluorimeter. The alkaline phosphatase activity detected was expressed in units of μmol/mg protein/min.
Liposarcoma cells also accumulate triacyl glycerol in response to biliverdin. The extent of the accumulation is determined by the composition of the incubation media. Triacyl glycerol is induced in liposarcoma cells by insulin alone. The amount increases when bovine pituitary extract is added with the insulin. The highest production is achieved, however, when biliverdin is combined with insulin plus bovine pituitary extract.

Molecule	recovery of dorsal axial structures ([1]; 254 or 366 nm UV-irradiated embryos, μM amounts)	recovery of dorsal axis formation ([1]; UV-irradiated embryos, 3.7 μM)	p21 content in words [2]	average DAI of control embryos [3]	activity on human colon adenocarcinoma cells (p21/p27, G1, proliferation arrest, differentiation markers) [4]	increase of triacylglycerol content relative to control ([5]; 3T3-L1 fibroblasts, insulin in the absence of biliverdin) [fold]	% Change of TAG ([5]; Normal Fibroblast, insulin 5 μg/ml, biliverdin 4 × 10^−7 M where present) [%]	TAG ([5]; Normal Fibroblast, insulin 5 μg/ml, biliverdin 4 × 10^−7 M where present, control 9.3) [mg/10^6 cells]	% Change of TAG [6] [%]	TAG ([6]; control 12.3) [mg/10^6 cells]
C=CC1=C(C)/C(=C/C2=NC(=C\c3[nH]c(/C=C4\NC(=O)C(C)=C4C=C)c(C)c3CCC(=O)OC)/C(CCC(=O)OC)=C2C)NC1=O.Cl [biliverdin dimethyl ester hydrochloride, reference compound]	does not induce recovery	no recovery	nearly undetectable	5	inactive	–	–	–	–	–
Insulin: hormone; differentiates 3T3-L1 fibroblasts into adipocytes	–	–	–	–	–	3	304	28.3	139	17.1
